# Measurements taken from publication PMC8723806 (Journal of the Iranian Chemical Society, 2022).
# Legend:
# COX-2 = biological target: T1, COX-2 (Ovis aries, UniProt P79208); assay: In vitro COX-2 inhibition, colorimetric enzyme immune assay; assay type: biochemical, ovine; details: for COX-2 SI (COX-1 IC50/COX-2 IC50): in vitro COX-2 selectivity index; for COX-2 inhibition, in words: compared with celecoxib
# T1 sequence (P79208 17-603): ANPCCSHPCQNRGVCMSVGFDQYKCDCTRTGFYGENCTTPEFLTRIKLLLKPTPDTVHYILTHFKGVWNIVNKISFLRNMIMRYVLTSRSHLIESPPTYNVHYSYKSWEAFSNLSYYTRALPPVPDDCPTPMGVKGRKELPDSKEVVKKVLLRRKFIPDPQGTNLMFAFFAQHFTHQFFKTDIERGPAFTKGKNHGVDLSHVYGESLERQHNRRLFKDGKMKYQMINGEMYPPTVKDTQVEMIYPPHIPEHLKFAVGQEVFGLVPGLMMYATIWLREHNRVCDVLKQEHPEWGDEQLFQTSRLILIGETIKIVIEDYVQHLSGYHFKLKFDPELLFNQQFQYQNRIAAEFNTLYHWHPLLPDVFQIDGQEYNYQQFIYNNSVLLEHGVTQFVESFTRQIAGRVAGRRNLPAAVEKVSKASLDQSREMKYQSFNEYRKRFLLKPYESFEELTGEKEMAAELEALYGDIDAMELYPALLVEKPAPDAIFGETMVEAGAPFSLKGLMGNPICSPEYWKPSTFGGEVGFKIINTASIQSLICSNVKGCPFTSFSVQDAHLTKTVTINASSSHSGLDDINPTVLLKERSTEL
# COX-1 = biological target: T2, COX-1 (Ovis aries, UniProt P05979); assay: In vitro COX-1 inhibition, colorimetric enzyme immune assay; assay type: biochemical, ovine
# T2 sequence (P05979 25-600): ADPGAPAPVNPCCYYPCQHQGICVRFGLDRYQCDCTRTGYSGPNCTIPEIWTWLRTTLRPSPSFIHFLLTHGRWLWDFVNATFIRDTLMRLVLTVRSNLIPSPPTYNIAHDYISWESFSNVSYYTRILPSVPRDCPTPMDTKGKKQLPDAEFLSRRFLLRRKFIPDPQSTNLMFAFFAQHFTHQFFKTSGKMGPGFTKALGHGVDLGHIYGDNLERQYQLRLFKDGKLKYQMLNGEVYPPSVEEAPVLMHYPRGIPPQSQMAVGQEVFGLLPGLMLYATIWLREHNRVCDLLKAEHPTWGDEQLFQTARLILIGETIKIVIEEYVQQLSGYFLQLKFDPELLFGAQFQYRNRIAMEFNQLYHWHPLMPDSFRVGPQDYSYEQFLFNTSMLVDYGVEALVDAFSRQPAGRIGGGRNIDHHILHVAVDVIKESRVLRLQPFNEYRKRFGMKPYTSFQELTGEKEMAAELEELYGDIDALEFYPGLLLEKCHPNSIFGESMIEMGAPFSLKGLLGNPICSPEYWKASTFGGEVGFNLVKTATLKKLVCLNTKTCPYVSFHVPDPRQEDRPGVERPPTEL
SMILES,COX-2 SI (COX-1 IC50/COX-2 IC50) (COX-2),IC50 (COX-1),"COX-2 inhibition, in words (COX-2)"
"O=[N+]([O-])c1ccc(-c2ccccc2F)cc1 [Compound 3a, 2-Fluoro-4'-nitrobiphenyl]",84.16,,
"Fc1ccccc1-c1ccc(F)c(C(F)(F)F)c1 [Compound 3b, 2,4'-Difluoro-3'-(trifluoromethyl) biphenyl]",101.99,11.2 µM,
"Fc1ccc(-c2ccccc2F)cc1OC(F)(F)F [Compound 3c, 2,4'-Difluoro-3'-(trifluoromethoxy)biphenyl]",109.9,,
"O=[N+]([O-])c1cccc(-c2ccccc2F)c1F [Compound 3d, 2,2'-Difluoro-3-nitrobiphenyl]",68.06,,
"COc1ccccc1-c1ccc([N+](=O)[O-])cc1 [Compound 3f, 2-Methoxy-4'-nitrobiphenyl]",32.55,,less potency
"COc1ccccc1-c1ccc(F)c(C(F)(F)F)c1 [Compound 3g, 4'-Fluoro-2-methoxy-3'-(trifluoromethyl)biphenyl]",76.84,,
"COc1ccccc1-c1ccc(F)c(OC(F)(F)F)c1 [Compound 3h, 4'-Fluoro-2-methoxy-3'-(trifluoromethoxy)biphenyl]",67.31,,
"COc1ccccc1-c1cccc([N+](=O)[O-])c1F [Compound 3i, 2-Fluoro-2'-methoxy-3-nitrobiphenyl]",54.94,,less potency
"COc1ccc(F)c(-c2ccccc2OC)c1 [Compound 3j, 2-Fluoro-2',5-dimethoxybiphenyl]",,,less potency
